Experimental data published in paper PMC10700596 (Nature Communications, 2023).

What was measured:
EP4R [1] = biological target: T1, EP4R (Homo sapiens, UniProt P35408); test: biochemical; assay type: binding; conditions: […], read-out: % displacement of 3HPGE2 at 10 µM, 10 µM compound vs 10 nM 3H-PGE2
T1 construct: Tango fusion cassette (only 'tango' is printed); expressed in transfected cells; host or cells: HTLA cells (tTA-dependent luciferase reporter, β-arrestin2-TEV fusion)

EP4R [2] = biological target: T1, EP4R; test: PRESTO-Tango β-arrestin2 recruitment assay; assay type: cell-based; conditions: for Ki: PRESTO-Tango Ki* (nM)
[3] = PRESTO-Tango IC50 (nM), antagonist mode, EC80 of PGE2
[4] = PRESTO-Tango -logIC50, antagonist mode, EC80 of PGE2
[5] = calculated using the Cheng Prusoff equation

T1 sequence (P35408 whole entry, the tested form may be a part): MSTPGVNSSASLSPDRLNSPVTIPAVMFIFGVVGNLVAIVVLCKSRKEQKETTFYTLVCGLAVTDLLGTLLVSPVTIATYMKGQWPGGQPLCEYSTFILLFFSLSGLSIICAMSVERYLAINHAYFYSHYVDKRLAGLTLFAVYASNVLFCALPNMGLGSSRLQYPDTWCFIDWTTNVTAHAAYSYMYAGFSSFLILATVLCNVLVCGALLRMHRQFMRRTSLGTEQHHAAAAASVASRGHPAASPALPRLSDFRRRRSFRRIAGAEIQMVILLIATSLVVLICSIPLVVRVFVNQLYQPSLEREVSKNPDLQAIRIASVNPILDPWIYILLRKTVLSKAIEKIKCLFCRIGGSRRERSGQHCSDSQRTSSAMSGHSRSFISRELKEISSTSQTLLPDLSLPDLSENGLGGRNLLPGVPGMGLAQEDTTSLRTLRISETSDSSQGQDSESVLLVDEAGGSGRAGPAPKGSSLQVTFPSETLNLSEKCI

Structure (SMILES)	IC50 (EP4R [2]; [3]) [nM]	IC50 (EP4R [2]; [4]) [nM]	further results
O=C(O)C1(n2cc(Cc3ccc(F)cc3F)cn2)CCC(c2ccccc2)CC1 (stereo not shown) [Compound 1, OC(=O)C1(CCC(CC1)C=2C=CC=CC2)N3C=C(CC=4C=CC(F)=CC4F)C=N3]			inhibition at 10 µM (EP4R [1]): -28.7%
CCc1ncc(CN(CC(=O)O)C(=O)OCc2cccnc2)s1 [Compound 2, CCC1=NC=C(CN(CC(=O)O)C(=O)OCC=2C=CC=NC2)S1]			inhibition at 10 µM (EP4R [1]): -23.1%
CC1CC(C(=O)O)CN(C(=O)C2(c3cccc(C(F)(F)F)c3)CC2)C1 (stereo not shown) [Compound 3, CC1CC(CN(C1)C(=O)C2(CC2)C=3C=CC=C(C3)C(F)(F)F)C(=O)O]			inhibition at 10 µM (EP4R [1]): -22.5%
O=C(NC1CC(C(=O)O)C1)N[C@@H]1CCC[C@@H]1n1cccn1 (stereo partly shown) [Compound 4, OC(=O)C1CC(C1)NC(=O)N[C@@H]2CCC[C@@H]2N3C=CC=N3]			inhibition at 10 µM (EP4R [1]): -21.9%
CN(c1ncnc2[nH]c3ccccc3c12)C1CC2(CCC(C(=O)O)CC2)C1 (stereo not shown) [Compound 76, CN(C1CC2(C1)CCC(CC2)C(=O)O)C=3N=CN=C4NC=5C=CC=CC5C34]			IC50 (EP4R [2]; PRESTO-Tango IC50 (nM)): 1170 nM; Ki (EP4R [2]): 234 nM
Cc1cc(C(=O)NC2CCCC(C(=O)O)CC2)c(C)n1-c1ccccc1 (stereo not shown) [Compound 78, CC1=CC(C(=O)NC2CCCC(CC2)C(=O)O)=C(C)N1C=3C=CC=CC3]	7080		Ki (EP4R [2]): 1420 nM
O=C(O)C1CCC2(CC1)CC(Nc1ncnc3c1oc1ccccc13)C2 (stereo not shown) [Compound 84, OC(=O)C1CCC2(CC(C2)NC=3N=CN=C4C=5C=CC=CC5OC34)CC1]	5730		Ki (EP4R [2]): 1150 nM
O=C(O)C1CCC2(CC1)CC(Nc1ncnc3sc(-c4ccccc4)cc13)C2 (stereo not shown) [Compound 85, OC(=O)C1CCC2(CC(C2)NC=3N=CN=C4SC(=CC34)C=5C=CC=CC5)CC1]	> 10000	776000	
Cc1csc2ncnc(NC3CC4(CCC(C(=O)O)CC4)C3)c12 (stereo not shown) [Compound 86, CC1=CSC=2N=CN=C(NC3CC4(C3)CCC(CC4)C(=O)O)C12]	7960		Ki (EP4R [2]; [5]): 1590 nM
CC(C)c1ccc2ncnc(NC3CC4(CCC(C(=O)O)CC4)C3)c2c1 (stereo not shown) [Compound 87, CC(C)C=1C=CC=2N=CN=C(NC3CC4(C3)CCC(CC4)C(=O)O)C2C1]	> 10000	19500	
Cc1cc2c(NC3CC4(CCC(C(=O)O)CC4)C3)ncnc2s1 (stereo not shown) [Compound 88, CC1=CC=2C(NC3CC4(C3)CCC(CC4)C(=O)O)=NC=NC2S1]			IC50 (EP4R [2]; PRESTO-Tango -logIC50): 708000 nM; IC50 (EP4R [2]; PRESTO-Tango IC50 (nM)): > 10000 nM
O=C(O)C1CCC2(CC1)CC(Nc1nc(C(F)(F)F)nc3ccccc13)C2 (stereo not shown) [Compound 90, OC(=O)C1CCC2(CC(C2)NC=3N=C(N=C4C=CC=CC34)C(F)(F)F)CC1]	3870		Ki (EP4R [2]; [5]): 774 nM
O=C(O)C1CCC2(CC1)CC(Nc1ncnc3sc4c(c13)CCC4)C2 (stereo not shown) [Compound 91, OC(=O)C1CCC2(CC(C2)NC=3N=CN=C4SC=5CCCC5C34)CC1]	4030		Ki (EP4R [2]): 807 nM
CC1CCc2c(sc3ncnc(NC4CC5(CCC(C(=O)O)CC5)C4)c23)C1 (stereo not shown) [Compound 92, CC1CCC2=C(C1)SC=3N=CN=C(NC4CC5(C4)CCC(CC5)C(=O)O)C23]	806		Ki (EP4R [2]; [5]): 161 nM
Cc1nc(NC2CC3(CCC(C(=O)O)CC3)C2)c2cc(-c3ccccc3)sc2n1 (stereo not shown) [Compound 93, CC=1N=C(NC2CC3(C2)CCC(CC3)C(=O)O)C=4C=C(SC4N1)C=5C=CC=CC5]	7350		Ki (EP4R [2]; [5]): 1470 nM
Cc1nc2ncnn2c(NC2CC3(CCC(C(=O)O)CC3)C2)c1C (stereo not shown) [Compound 94, CC1=NC2=NC=NN2C(NC3CC4(C3)CCC(CC4)C(=O)O)=C1C]			IC50 (EP4R [2]; PRESTO-Tango -logIC50): 12000 nM; IC50 (EP4R [2]; PRESTO-Tango IC50 (nM)): > 10000 nM
O=C(NC1CCCC(C(=O)O)CC1)c1nn(-c2ccccc2)c2c1CCC2 (stereo not shown) [Compound 98, OC(=O)C1CCCC(CC1)NC(=O)C2=NN(C=3CCCC23)C=4C=CC=CC4]	2060		Ki (EP4R [2]; [5]): 411 nM
O=C(O)C[C@@H]1CC[C@H](NC(=O)c2csc(C3CCCCC3)c2)C1 [Compound 100, OC(=O)C[C@@H]1CC[C@@H](C1)NC(=O)C2=CSC(=C2)C3CCCCC3]	1880	1820	Ki (EP4R [2]): 376 nM
O=C(NC1CCCC(C(=O)O)CC1)c1csc(C2CCCCC2)n1 (stereo not shown) [Compound 106, OC(=O)C1CCCC(CC1)NC(=O)C2=CSC(=N2)C3CCCCC3]	> 10000	23400	
O=C(NC1CCCC(C(=O)O)CC1)c1csc(Cc2ccccc2)c1 (stereo not shown) [Compound 107, OC(=O)C1CCCC(CC1)NC(=O)C2=CSC(CC=3C=CC=CC3)=C2]	> 10000	22900	

Structure (SMILES)	IC50 (EP4R [2]; [3]) [nM]	IC50 (EP4R [2]; [4]) [nM]	further results
Cc1sc(C(=O)NC2CCCC(C(=O)O)CC2)cc1-c1ccc(F)cc1 (stereo not shown) [Compound 108, CC=1SC(=CC1C=2C=CC(F)=CC2)C(=O)NC3CCCC(CC3)C(=O)O]	> 10000	501000	
O=C(NC1CC2(CCC(C(=O)O)CC2)C1)c1csc(C2CCCCC2)c1 (stereo not shown) [Compound 109, OC(=O)C1CCC2(CC(C2)NC(=O)C3=CSC(=C3)C4CCCCC4)CC1]	> 10000	10200	
Cc1cc(C(=O)N[C@@H]2CC[C@@H](C(=O)O)CCC2(F)F)c(C)n1-c1ccccc1F [Compound 113, CC1=CC(C(=O)N[C@@H]2CC[C@H](CCC2(F)F)C(=O)O)=C(C)N1C=3C=CC=CC3F]			IC50 (EP4R [2]; PRESTO-Tango -logIC50): 11000 nM; IC50 (EP4R [2]; PRESTO-Tango IC50 (nM)): > 10000 nM
O=C(NC1CCCC(C(=O)O)CC1)c1nn(-c2ccc(F)cc2)c2c1CCC2 (stereo not shown) [Compound 116, OC(=O)C1CCCC(CC1)NC(=O)C2=NN(C=3CCCC23)C=4C=CC(F)=CC4]	> 10000	17400	
COc1cccc(-n2c(C)cc(C(=O)NC3CCCC(C(=O)O)CC3)c2C)c1 (stereo not shown) [Compound 117, COC=1C=CC=C(C1)N2C(C)=CC(C(=O)NC3CCCC(CC3)C(=O)O)=C2C]	> 10000	22900	
O=C(N[C@@H]1CC[C@@H](C(=O)O)CCC1(F)F)c1nn(-c2ccccc2F)c2c1CCC2 [Compound 118, OC(=O)[C@@H]1CC[C@@H](NC(=O)C2=NN(C=3CCCC23)C=4C=CC=CC4F)C(F)(F)CC1]	3790		Ki (EP4R [2]): 757 nM
Cc1cc(C(=O)NC2CCCC(C(=O)O)CC2)c(C)n1-c1ccc(F)cc1 (stereo not shown) [Compound 119, CC1=CC(C(=O)NC2CCCC(CC2)C(=O)O)=C(C)N1C=3C=CC(F)=CC3]	> 10000	25900	
O=C(N[C@@H]1CC[C@@H](C(=O)O)CCC1(F)F)c1nn(-c2cccc(F)c2)c2c1CCC2 [Compound 121, OC(=O)[C@@H]1CC[C@@H](NC(=O)C2=NN(C=3CCCC23)C=4C=CC=C(F)C4)C(F)(F)CC1]	1010	1000	Ki (EP4R [2]; [5]): 202 nM
Cc1cc(C(=O)NC2CCCC(C(=O)O)CC2)c(C)n1-c1ccc(C(C)C)cc1 (stereo not shown) [Compound 122, CC(C)C=1C=CC(=CC1)N2C(C)=CC(C(=O)NC3CCCC(CC3)C(=O)O)=C2C]	1150		Ki (EP4R [2]; [5]): 229 nM
O=C(NC1CCCC(C(=O)O)CC1)c1nn(-c2cccc(F)c2)c2c1CCC2 (stereo not shown) [Compound 123, OC(=O)C1CCCC(CC1)NC(=O)C2=NN(C=3CCCC23)C=4C=CC=C(F)C4]			IC50 (EP4R [2]; PRESTO-Tango IC50 (nM)): 1470 nM; Ki (EP4R [2]; [5]): 293 nM
COc1ccc(-n2c(C)cc(C(=O)NC3CCCC(C(=O)O)CC3)c2C)cc1 (stereo not shown) [Compound 124, COC=1C=CC(=CC1)N2C(C)=CC(C(=O)NC3CCCC(CC3)C(=O)O)=C2C]	> 10000	53700	
O=C(N[C@@H]1CC[C@@H](C(=O)O)CCC1(F)F)c1nn(-c2ccccc2)c2c1CCC2 [Compound 125, OC(=O)[C@@H]1CC[C@@H](NC(=O)C2=NN(C=3CCCC23)C=4C=CC=CC4)C(F)(F)CC1]	1640		Ki (EP4R [2]; [5]): 328 nM
Cc1cc(C(=O)NC2CCCC(C(=O)O)CC2)c(C)n1-c1cccc(F)c1 (stereo not shown) [Compound 126, CC1=CC(C(=O)NC2CCCC(CC2)C(=O)O)=C(C)N1C=3C=CC=C(F)C3]			PRESTO-Tango -logIC50 (EP4R [2]): unstable; IC50 (EP4R [2]; PRESTO-Tango IC50 (nM)): > 10000 nM
O=C(N[C@@H]1CC[C@@H](C(=O)O)CCC1(F)F)c1nn(-c2ccc(F)cc2)c2c1CCC2 [Compound 127, OC(=O)[C@@H]1CC[C@@H](NC(=O)C2=NN(C=3CCCC23)C=4C=CC(F)=CC4)C(F)(F)CC1]	2170		Ki (EP4R [2]; [5]): 434 nM
Cc1cc(C(=O)N[C@@H]2CC[C@@H](C(=O)O)CCC2(F)F)c(C)n1-c1cccc(F)c1 [Compound 128, CC1=CC(C(=O)N[C@@H]2CC[C@H](CCC2(F)F)C(=O)O)=C(C)N1C=3C=CC=C(F)C3]	> 10000	18200	
Cc1cc(C(=O)NC2CCCC(C(=O)O)CC2)c(C)n1-c1ccccc1F (stereo not shown) [Compound 129, CC1=CC(C(=O)NC2CCCC(CC2)C(=O)O)=C(C)N1C=3C=CC=CC3F]	> 10000	479000	
CN(C(=O)c1nn(-c2ccccc2)c2c1CCC2)C1CCCC(C(=O)O)CC1 (stereo not shown) [Compound 131, CN(C1CCCC(CC1)C(=O)O)C(=O)C2=NN(C=3CCCC23)C=4C=CC=CC4]	1880		Ki (EP4R [2]): 376 nM
Cc1cc(C(=O)N(C)C2CCCC(C(=O)O)CC2)c(C)n1-c1ccccc1 (stereo not shown) [Compound 132, CN(C1CCCC(CC1)C(=O)O)C(=O)C=2C=C(C)N(C2C)C=3C=CC=CC3]	> 10000	23400	
O=C(O)C1CCC2(CC1)CC(Nc1ncnc3[nH]c4ncccc4c13)C2 (stereo not shown) [Compound 133, OC(=O)C1CCC2(CC(C2)NC=3N=CN=C4NC=5N=CC=CC5C34)CC1]	1090		Ki (EP4R [2]; [5]): 218 nM
